Reference: patent US20120183482A1, “MELANIN PRODUCTION INHIBITOR” (FUJIFILM CORPORATION, priority 2009, published 2012)
In brackets after ≈: the same amount, converted by molar mass. Values belong to the molecule of their own block, whether it stands above or below them.

Columns and labels:
[1] = tested on: B16 melanoma cells; experiment: Melanin production inhibition test; format: cell-based; conditions: for Melanin Production: no sample = 100; for IC50: Mus musculus, B16, read out from the melanin production inhibition curves (FIG. 1), read-out: IC50 values at which 50% of the melanin production was inhibited
Procedure: B16 melanoma cells were seeded on 10% (v/v) FBS-containing MEM medium (minimum basal medium containing fetal bovine serum) so as to be 2.5×10^5 cells/well in a 12-well culture plate and were cultivated for 24 hours in a usual manner.
(§1) After the pre-cultivation, the medium was replaced with a test medium and cultivation was carried out for 72 hours. As the test medium, there was employed a medium obtained by adding 0.25 mmol/L of theophylline, 0.5% (v/v) of dimethyl sulfoxide to the medium for the pre-cultivation, and each of various evaluation samples so as to be a concentration described in Table.
The Salacia crude extract was prepared by the following method. After 0.5 kg of root and trunk parts of Salacia reticulate, Salacia oblonga, and Salacia chinensis were pulverized, 10 L of water was added thereto and extraction was performed under conditions of 100° C. and 1 hour. After the obtained extract solution was filtrated through a 100-mesh filter, spray drying was performed and a product obtained as 50 g of an extract powder was used.
As ellagic acid, ellagic acid dihydrate manufactured by Wako Pure Chemical Industries, Ltd. was used.
As arbutin, β-arbutin manufactured by Sigma-Aldrich was used.
After the cultivation was finished, the cells were washed with PBS (phosphate buffer) and then a 1 mol/L aqueous sodium hydroxide solution containing 10% (v/v) dimethyl sulfoxide was added thereto. After the whole was subjected to an ultrasonic treatment at 50° C. for 30 minutes, absorbance of the solution at a wavelength of 400 nm was measured and was taken as a melanin amount in a well. Moreover, at the same time, measurement of the number of living cells by MTT assay was carried out in another culture plate (test conditions are in accordance to Example 2). Finally, the melanin amount in the well was normalized by the measurement value by the MTT assay and the resulting amount was taken as a melanin amount per unit cell.
A melanin production inhibition rate (%) in the case where the evaluation sample was added was determined, the melanin amount in the case where no evaluation sample was added being regarded as 100.

[2] = tested on: B16 melanoma cells; experiment: Cytotoxicity test (MTT assay); format: cell-based; conditions: for Cell survival rate: 72 hours, no sample = 100
Procedure: B16 melanoma cells were seeded on 10% (v/v) FBS-containing MEM medium so as to be 1.25×10^5 cells/well in a 24-well culture plate and were cultivated for 24 hours in a usual manner.
as §1
After the cultivation was finished, the cells were washed with PBS and then a 0.5 mg/mL MTT solution was added in an amount of 500 μL/well and the temperature was kept for 2 hours in an incubator. Thereafter, 1.5 mL of dimethyl sulfoxide was added thereto and then absorbance at a wavelength of 570 nm was measured and taken as an index of the number of living cells.
A cell revival rate (%) in the case where the evaluation sample was added was determined, the number of living cells in the case where no evaluation sample was added being regarded as 100.

[3] = high concentration region, data are not shown

IC50 [1]: 54 µg/mL (≈ 198 µM)
Structure (SMILES): OC[C@H]1O[C@@H](Oc2ccc(O)cc2)[C@H](O)[C@@H](O)[C@@H]1O [Arbutin, β-arbutin]
Melanin Production ([1]; 16.338 μg/mL, 72 hours): 69.5%
Melanin Production ([1]; 54.46 μg/mL, 72 hours): 49.9%
Melanin Production ([1]; 163.38 μg/mL, 72 hours): 28.4%
Melanin Production ([1]; 544.6 μg/mL, 72 hours): 20.7%
cytotoxicity (in words) [2, 3]: cytotoxicity was observed

IC50 [1]: 1.5 µg/mL
Structure (SMILES): O=c1oc2c(O)c(O)cc3c(=O)oc4c(O)c(O)cc1c4c23 [Ellagic acid, ellagic acid dihydrate]
Melanin Production ([1]; 0.67646 μg/mL, 72 hours): 79%
Melanin Production ([1]; 2.02938 μg/mL, 72 hours): 33%
Cell survival rate ([2]; 0.67646 μg/mL): 117.4%
Cell survival rate ([2]; 2.02938 μg/mL): 107.3%
Cell survival rate ([2]; 6.7646 μg/mL): 48.1%
Cell survival rate ([2]; 20.2938 μg/mL): 25.8%
cytotoxicity (in words) ([2]; high concentration region (up to 20.3 μg/mL)): exhibited cytotoxicity

IC50 [1]: 240 µg/mL (≈ 1690 µM)
Structure (SMILES): O=c1cc(CO)occ1O [Kojic acid]
Melanin Production ([1]; 8.5266 μg/mL, 72 hours): 83.6%
Melanin Production ([1]; 28.422 μg/mL, 72 hours): 77.2%
Melanin Production ([1]; 85.266 μg/mL, 72 hours): 72.8%
Melanin Production ([1]; 284.22 μg/mL, 72 hours): 43.4%
cytotoxicity (in words) [2, 3]: cytotoxicity was observed

Structure (SMILES): COc1ccc(C(=O)[O-])c(O)c1.[K+] [Potassium 4-methoxysalicylate]
Melanin Production ([1]; 123.69 μg/mL, 72 hours): 46.0%
Melanin Production ([1]; 412.3 μg/mL, 72 hours): 20.1%
IC50 [1]: 80 µg/mL
cytotoxicity (in words) [2, 3]: cytotoxicity was observed

Structure (SMILES): O=S(=O)([O-])O[C@@H](CO)[C@H](O)C[S@+]1C[C@@H](O)[C@H](O)[C@H]1CO [Salacinol, salacinol]
Melanin Production ([1]; 1.998 μg/mL, 72 hours, melanin amount per unit cell): 71%
Melanin Production ([1]; 6.66 μg/mL, 72 hours): 50%
Melanin Production ([1]; 19.98 μg/mL, 72 hours): 34%
melanin production inhibitory effect (in words) ([1]; B16 melanoma cells, 72 hours): concentration-dependent and remarkable melanin production inhibitory effect
IC50 [1]: 6.3 µg/mL (≈ 18.8 µM)
Cell survival rate ([2]; 1.998 μg/mL): 89.6%
Cell survival rate ([2]; 6.66 μg/mL): 85.0%
Cell survival rate ([2]; 19.98 μg/mL): 87.9%
Cell survival rate ([2]; 66.6 μg/mL): 78.8%
cytotoxicity (in words) ([2]; concentration region up to 66.6 μg/mL): almost no cytotoxicity
